Test results published in patent publication US9512107B2, “Therapeutically active compositions and their methods of use” (Agios Pharmaceuticals, Inc., priority 2012, dated 2016).
Substitutions are numbered along the chain they refer to. pIC50: −log10 of the molar value. Like-named read-outs stand apart in the source and are kept apart here.

Columns and labels:
IDH2 R172K = target: T1, IDH2 R172K (Homo sapiens, UniProt P48735, R172K); experiment: IDH2 R172K enzymatic assay (NADPH cofactor depletion, diaphorase/resazurin readout); assay type: biochemical; settings: read-out: Enz R172K
T1 sequence (P48735 40-452 R172K): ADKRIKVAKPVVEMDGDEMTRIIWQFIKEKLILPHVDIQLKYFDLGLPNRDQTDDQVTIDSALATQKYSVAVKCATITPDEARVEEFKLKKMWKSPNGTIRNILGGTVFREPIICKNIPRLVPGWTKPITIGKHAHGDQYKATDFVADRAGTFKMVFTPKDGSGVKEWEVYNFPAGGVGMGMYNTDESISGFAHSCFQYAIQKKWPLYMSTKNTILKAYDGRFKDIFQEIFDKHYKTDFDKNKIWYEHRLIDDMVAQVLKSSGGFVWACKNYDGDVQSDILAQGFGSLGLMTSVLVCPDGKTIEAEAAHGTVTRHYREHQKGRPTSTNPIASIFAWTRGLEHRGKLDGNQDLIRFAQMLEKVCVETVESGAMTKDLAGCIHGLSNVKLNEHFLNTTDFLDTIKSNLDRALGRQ
Outline: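 Residual NADPH is read out as resorufin fluorescence after quenching with 36 μg/ml diaphorase and 60 μM resazurin in stop mix. The stop follows a 1 h room-temperature reaction started by a substrate mix of NADPH (50 μM) and α-KG (6.3 mM), with compound preincubated with enzyme for 1 h beforehand.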

IDH2 R140Q = target: T2, IDH2 R140Q (Homo sapiens, UniProt P48735, R140Q); experiment: IDH2 R140Q enzymatic assay (cofactor depletion, similar format); assay type: biochemical
T2 sequence (P48735 40-452 R140Q): T1 sequence (P48735 40-452 R172K) with R101Q, K133R

[1] = test system: U87MG pLVX-IDH2 R140Q-neo cells; experiment: U87MG pLVX-IDH2 R140Q-neo cell based assay, 2-HG in media by LC-MS at 48 hours; settings: Homo sapiens, U-87 MG
Outline: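 2-HG secreted into the medium was measured by LC-MS after 48 h of compound treatment (0.2% DMSO final) of U87MG pLVX-IDH2 R140Q-neo cells in DMEM/10% FBS. The same wells were assayed at 72 h by CellTiter-Glo luminescence for effects on growth.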

With `CC(C)Nc1nc(Nc2cncc(F)c2)nc(-c2ccccc2F)n1` [Compound 374, 6-(2-fluorophenyl)-N^2-(5-fluoropyridin-3-yl)-N^4-isopropyl-1,3,5-triazine-2,4-diamine] the pIC50 (IDH2 R172K) was over 7.00, the pIC50 (IDH2 R140Q; read-out: Enz R140Q) was over 7.00 and the pIC50 [1] was over 7.00.
`CC(C)Nc1nc(Nc2cncc(C(F)(F)F)c2)nc(-c2cccc(C(F)(F)F)n2)n1` [Compound 386, N^2-isopropyl-6-(6-(trifluoromethyl)pyridin-2-yl)-N^4-(5-(trifluoromethyl)pyridin-3-yl)-1,3,5-triazine-2,4-diamine] gave a pIC50 (IDH2 R172K) of over 7.00, a pIC50 (IDH2 R140Q; read-out: Enz R140Q) of 6.00 to 7.00 and a pIC50 [1] of over 7.00.
`CC(C)(O)CNc1nc(Nc2ccnc(C(F)(F)F)c2)nc(-c2cccc(C(F)(F)F)n2)n1` [Compound 409, 2-methyl-1-(4-(6-(trifluoromethyl)pyridin-2-yl)-6-(2-(trifluoromethyl)pyridin-4-ylamino)-1,3,5-triazin-2-ylamino)propan-2-ol] was tested, and the pIC50 (IDH2 R172K) was 6.00 to 7.00, the pIC50 (IDH2 R140Q; Enz R140Q) was 6.00 to 7.00 and the pIC50 [1] was over 7.00.
For `CC(C)(C)OC(=O)Nc1nc(Nc2ccccc2)nc(-c2ccccc2)n1` [Compound 416, Tert-butyl 4-phenyl-6-(phenylamino)-1,3,5-triazin-2-ylcarbamate], the pIC50 (IDH2 R172K) was 6.00 to 7.00, the pIC50 (IDH2 R140Q; read-out: Enz R140Q) was over 7.00 and the pIC50 [1] was over 7.00.
Work on `CC(C)Nc1nc(Nc2ccc(S(C)(=O)=O)cc2)nc(-c2ccccc2)n1` [Compound 452, N2-isopropyl-N4-(4-(methylsulfonyl)phenyl)-6-phenyl-1,3,5-triazine-2,4-diamine] yielded a pIC50 (IDH2 R172K) of under 5.00, a pIC50 (IDH2 R140Q; read-out: Enz R140Q) of 6.00 to 7.00 and a pIC50 [1] of 5.00 to 6.00.
For `CC(C)Nc1nc(Nc2cccc(S(C)(=O)=O)c2)nc(-c2nc(F)ccc2F)n1` [Compound 454], the pIC50 (IDH2 R172K) was 5.00 to 6.00, the pIC50 (IDH2 R140Q; read-out: Enz R140Q) was 6.00 to 7.00 and the pIC50 [1] was 6.00 to 7.00.
Work on `CC(C)Nc1nc(Nc2cc(F)cc(F)c2)nc(-c2nccc(C(F)(F)F)n2)n1` [Compound 455, N-(3,5-Difluoro-phenyl)-N′-isopropyl-6-(4-trifluoromethyl-pyrimidin-2-yl)-[1,3,5]triazine-2,4-diamine] yielded a pIC50 (IDH2 R172K) of over 7.00, a pIC50 (IDH2 R140Q; read-out: Enz R140Q) of 6.00 to 7.00 and a pIC50 [1] of over 7.00.
With `CC(C)Nc1nc(Nc2cncc(F)c2)nc(-c2ncccc2F)n1` [Compound 456, N-(5-Fluoro-pyridin-3-yl)-6-(3-fluoro-pyridin-2-yl)-N′-isopropyl-[1,3,5]triazine-2,4-diamine] the pIC50 (IDH2 R172K) was 6.00 to 7.00, the pIC50 (IDH2 R140Q; read-out: Enz R140Q) was 6.00 to 7.00 and the pIC50 [1] was over 7.00.
Compound `CC(C)Nc1nc(Nc2cc(F)cc(F)c2)nc(-c2nccc(N)n2)n1` [Compound 458, 6-(4-Amino-pyrimidin-2-yl)-N-(3,5-difluoro-phenyl)-N′-isopropyl-[1,3,5]triazine-2,4-diamine] has a pIC50 (IDH2 R172K) of 6.00 to 7.00, a pIC50 (IDH2 R140Q; read-out: Enz R140Q) of 6.00 to 7.00 and a pIC50 [1] of over 7.00.
`CC(C)Nc1nc(Nc2cc(F)cc(F)c2)nc(-c2ncccc2F)n1` [Compound 459, N-(3,5-Difluoro-phenyl)-6-(3-fluoro-pyridin-2-yl)-N′-isopropyl-[1,3,5]triazine-2,4-diamine] showed a pIC50 (IDH2 R172K) of over 7.00, a pIC50 (IDH2 R140Q; read-out: Enz R140Q) of over 7.00 and a pIC50 [1] of over 7.00.
For `CC(C)Nc1nc(Nc2cc(F)cc(F)c2)nc(-c2nc(F)ccc2F)n1` [Compound 460, N-(3,5-Difluoro-phenyl)-6-(3,6-difluoro-pyridin-2-yl)-N′-isopropyl-[1,3,5]triazine-2,4-diamine], the pIC50 (IDH2 R172K) was over 7.00, the pIC50 (IDH2 R140Q; read-out: Enz R140Q) was over 7.00 and the pIC50 [1] was over 7.00.
`COc1ccc(F)c(-c2nc(Nc3cc(F)cc(F)c3)nc(NC(C)C)n2)n1` [Compound 461, N-(3,5-Difluoro-phenyl)-6-(3-fluoro-6-methoxy-pyridin-2-yl)-N′-isopropyl-[1,3,5]triazine-2,4-diamine] was tested, and the pIC50 (IDH2 R172K) was over 7.00, the pIC50 (IDH2 R140Q; read-out: Enz R140Q) was over 7.00 and the pIC50 [1] was over 7.00.
For `CC(C)Nc1nc(Nc2ccc(F)nc2)nc(-c2cccc(N)n2)n1` [Compound 462, 6-(6-Amino-pyridin-2-yl)-N-(6-fluoro-pyridin-3-yl)-N′-isopropyl-[1,3,5]triazine-2,4-diamine], the pIC50 (IDH2 R172K) was 6.00 to 7.00, the pIC50 (IDH2 R140Q; read-out: Enz R140Q) was 6.00 to 7.00 and the pIC50 [1] was 6.00 to 7.00.
`CC#Cc1cccc(-c2nc(Nc3cc(F)cc(F)c3)nc(NC(C)C)n2)n1` [Compound 463, N-(3,5-Difluoro-phenyl)-N′-isopropyl-6-(6-prop-1-ynyl-pyridin-2-yl)-[1,3,5]triazine-2,4-diamine] showed a pIC50 (IDH2 R172K) of over 7.00, a pIC50 (IDH2 R140Q; read-out: Enz R140Q) of 6.00 to 7.00 and a pIC50 [1] of over 7.00.
Compound `CNc1cccc(-c2nc(Nc3cc(F)cc(F)c3)nc(NC(C)C)n2)n1` [Compound 465] has a pIC50 (IDH2 R172K) of over 7.00, a pIC50 (IDH2 R140Q; read-out: Enz R140Q) of 6.00 to 7.00 and a pIC50 [1] of over 7.00.
With `CC(C)Nc1nc(Nc2cccc(S(C)(=O)=O)c2)nc(-c2c(F)cccc2F)n1` [Compound 466, 6-(2,6-difluorophenyl)-N2-isopropyl-N4-(3-(methylsulfonyl)phenyl)-1,3,5-triazine-2,4-diamine] the pIC50 (IDH2 R172K) was 6.00 to 7.00, the pIC50 (IDH2 R140Q; read-out: Enz R140Q) was 6.00 to 7.00 and the pIC50 [1] was over 7.00.
Work on `CC#Cc1cccc(-c2nc(Nc3cccc(F)c3)nc(NC(C)C)n2)n1` [Compound 467, N-(3-Fluoro-phenyl)-N′-isopropyl-6-(6-prop-1-ynyl-pyridin-2-yl)-[1,3,5]triazine-2,4-diamine] yielded a pIC50 (IDH2 R172K) of 6.00 to 7.00, a pIC50 (IDH2 R140Q; read-out: Enz R140Q) of 6.00 to 7.00 and a pIC50 [1] of 6.00 to 7.00.
Compound `CC(C)Nc1nc(Nc2cncc(C(F)(F)F)c2)nc(-c2cccc(N)n2)n1` [Compound 468, 6-(6-Amino-pyridin-2-yl)-N-isopropyl-N′-(5-trifluoromethyl-pyridin-3-yl)-[1,3,5]triazine-2,4-diamine] has a pIC50 (IDH2 R172K) of over 7.00, a pIC50 (IDH2 R140Q; read-out: Enz R140Q) of 6.00 to 7.00 and a pIC50 [1] of over 7.00.
Compound `CC(C)Nc1nc(Nc2cc(F)cc(F)c2)nc(-c2nc(O)ccc2F)n1` [Compound 469, 6-[4-(3,5-Difluoro-phenylamino)-6-isopropylamino-[1,3,5]triazin-2-yl]-5-fluoro-pyridin-2-ol] has a pIC50 (IDH2 R172K) of over 7.00, a pIC50 (IDH2 R140Q; read-out: Enz R140Q) of over 7.00 and a pIC50 [1] of over 7.00.
In the case of `CC(C)Nc1nc(Nc2cncc(F)c2)nc(-c2cccc(N)n2)n1` [Compound 470, 6-(6-Amino-pyridin-2-yl)-N-(5-fluoro-pyridin-3-yl)-N′-isopropyl-[1,3,5]triazine-2,4-diamine], the pIC50 (IDH2 R172K) was 6.00 to 7.00, the pIC50 (IDH2 R140Q; read-out: Enz R140Q) was 6.00 to 7.00 and the pIC50 [1] was over 7.00.
`Cc1nc(-c2nc(Nc3cccc(F)c3)nc(NC(C)C)n2)co1` [Compound 471, N-(3-Fluoro-phenyl)-N′-isopropyl-6-(2-methyl-oxazol-4-yl)-[1,3,5]triazine-2,4-diamine] gave a pIC50 (IDH2 R172K) of 6.00 to 7.00, a pIC50 (IDH2 R140Q; read-out: Enz R140Q) of 6.00 to 7.00 and a pIC50 [1] of over 7.00.
`Cc1cc(-c2nc(Nc3cccc(F)c3)nc(NC(C)C)n2)no1` [Compound 472, N-(3-Fluoro-phenyl)-N′-isopropyl-6-(5-methyl-isoxazol-3-yl)-[1,3,5]triazine-2,4-diamine] was tested, and the pIC50 (IDH2 R172K) was 6.00 to 7.00, the pIC50 (IDH2 R140Q; read-out: Enz R140Q) was over 7.00 and the pIC50 [1] was over 7.00.
With `CC(C)Nc1nc(Nc2cccc(F)c2)nc(-c2c(F)cccc2F)n1` [Compound 473, 6-(2,6-Difluoro-phenyl)-N-(3-fluoro-phenyl)-N′-isopropyl-[1,3,5]triazine-2,4-diamine] the pIC50 (IDH2 R172K) was over 7.00, the pIC50 (IDH2 R140Q; read-out: Enz R140Q) was over 7.00 and the pIC50 [1] was over 7.00.
In the case of `CC(C)Nc1nc(Nc2cncc(F)c2)nc(-c2c(F)cccc2F)n1` [Compound 474, 6-(2,6-Difluoro-phenyl)-N-(5-fluoro-pyridin-3-yl)-N′-isopropyl-[1,3,5]triazine-2,4-diamine], the pIC50 (IDH2 R172K) was over 7.00, the pIC50 (IDH2 R140Q; read-out: Enz R140Q) was 6.00 to 7.00 and the pIC50 [1] was over 7.00.
With `CC(C)Nc1nc(Nc2cccc(F)c2)nc(-c2nc(C(F)(F)F)cs2)n1` [Compound 475, N-(3-Fluoro-phenyl)-N′-isopropyl-6-(4-trifluoromethyl-thiazol-2-yl)-[1,3,5]triazine-2,4-diamine] the pIC50 (IDH2 R172K) was over 7.00, the pIC50 (IDH2 R140Q; read-out: Enz R140Q) was over 7.00 and the pIC50 [1] was over 7.00.
`Cc1nc(-c2nc(Nc3cc(F)cc(F)c3)nc(NC(C)C)n2)co1` [Compound 476, N-(3,5-Difluoro-phenyl)-N′-isopropyl-6-(2-methyl-oxazol-4-yl)-[1,3,5]triazine-2,4-diamine] was tested, and the pIC50 (IDH2 R172K) was 6.00 to 7.00, the pIC50 (IDH2 R140Q; read-out: Enz R140Q) was over 7.00 and the pIC50 [1] was over 7.00.
In the case of `CC(C)Nc1nc(Nc2cc(F)cc(F)c2)nc(-c2nc(N)ccc2F)n1` [Compound 477, 6-(6-amino-3-fluoropyridin-2-yl)-N2-(3,5-difluorophenyl)-N4-isopropyl-1,3,5-triazine-2,4-diamine], the pIC50 (IDH2 R172K) was over 7.00, the pIC50 (IDH2 R140Q; read-out: Enz R140Q) was 6.00 to 7.00 and the pIC50 [1] was over 7.00.
`Nc1ccnc(-c2nc(NCC3CC3)nc(Nc3cc(F)cc(F)c3)n2)n1` [Compound 478, 6-(4-Amino-pyrimidin-2-yl)-N-cyclopropylmethyl-N′-(3,5-difluoro-phenyl)-[1,3,5]triazine-2,4-diamine] gave a pIC50 (IDH2 R172K) of over 7.00, a pIC50 (IDH2 R140Q; read-out: Enz R140Q) of 6.00 to 7.00 and a pIC50 [1] of over 7.00.
